# Laboratory results taken from US12281225B2, “Process for preparing stable polymers containing vinylimidazole” (BASF SE, priority 2018, dated 2025).
# Key:
# [1] = Iodine color number according to DIN 6162:2014-09; assay type: physicochemical
# [2] = Analysis of active substance: preservative concentration before and after storage in VI-containing polymer solution; assay type: physicochemical; settings: for active-substance concentration, 0 d, RT: before storage; for active-substance concentration, 14 d, 40° C.: storage 14 d at 40° C.; for active-substance concentration, 28 d, 40° C.: storage 28 d at 40° C.; for active-substance concentration, 60 d 40° C.: storage 60 d at 40° C.
# In short: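 Preservatives (MIT, BIT, CMIT, OIT, DCOIT, iodopropynyl butyl carbamate) in aqueous vinylpyrrolidone–vinylimidazole copolymer solution quantified after dilution by isocratic RP18 chromatography with UV detection, using an acid-methanol eluent.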
# [3] = tested on: Bacteria: Escherichia coli, Staphylococcus aureus, Pseudomonas aeruginosa, Pseudomonas putida, Burkholderia cepacia, Alcaligenes faecalis; experiment: Preservation test with periodic inoculation, bacteria assessment; assay type: cell-based; settings: for Start sample measurement, bact. assess., 4th inoculation: freshly formulated; for 60 d 40° C., bact. assess., 4th inoculation: sample stored 60 d at 40° C.
# In short: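 Polymer samples (25 g) containing preservative were inoculated weekly, four times, with 10^9/ml bacterial or yeast mixtures (0.5 ml). Weekly streaks on agar were scored semiquantitatively (−− to ++) after 3 days at 25 °C, on fresh samples and on samples stored 60 days at 40 °C.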
# [4] = Physical stability; visual assessment (color, turbidity, phase separation); assay type: physicochemical; design: key: ++: no discernible change with respect to color, turbidity or phase separation; +: marginal change in color number, somewhat increased Tyndall effect but no turbidity; 0: easily discernible increase in color number and moderate turbidity−no phase separation; −: turbidity and change in color number readily discernible by visual assessment; −−: strong color change with strong turbidity and incipient phase separation
# In short: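 Samples were inspected visually for color, turbidity and phase separation and scored on a five-step scale. Scores run from ++ (no discernible change) to −− (strong color change, strong turbidity, incipient phase separation).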
# [5] = Polymer P5 (HP56) with stabilizer
smiles,measurement,setting,value
"Cn1sccc1=O [MIT, methyl-4-isothiazolin-3-one]","Iodine color number, 60 d 40° C.",[1]; Polymer P1 with stabilizer,5.5
same,"Iodine color number, start",[1]; Polymer P1 with stabilizer,2.5
same,"Iodine color number, 60 d 40° C.",[1]; Polymer P2 with stabilizer,5.8
same,"Iodine color number, start",[1]; Polymer P2 with stabilizer,2.7
same,"Iodine color number, 60 d 40° C.",[1]; Polymer P3 with stabilizer,8.5
same,"Iodine color number, start",[1]; Polymer P3 with stabilizer,3.4
same,"Iodine color number, 60 d 40° C.",[1]; Polymer P4 with stabilizer,8.7
same,"Iodine color number, start",[1]; Polymer P4 with stabilizer,3.4
same,"Iodine color number, 60 d 40° C.",[1]; [5],8.7
same,"Iodine color number, start",[1]; [5],3.6
same,"Iodine color number, 60 d 40° C.",[1]; Polymer P6 with stabilizer,8.5
same,"Iodine color number, start",[1]; Polymer P6 with stabilizer,3.6
same,"Iodine color number, 60 d 40° C.",[1]; Polymer P7 with stabilizer,8.5
same,"Iodine color number, start",[1]; Polymer P7 with stabilizer,3.6
same,"Iodine color number, 60 d 40° C.",[1]; Polymer P8 with stabilizer,8.6
same,"Iodine color number, start",[1]; Polymer P8 with stabilizer,3.5
same,"Iodine color number, 60 d 40° C.",[1]; Polymer P9 with stabilizer,12.7
same,"Iodine color number, start",[1]; Polymer P9 with stabilizer,3.9
same,"active-substance concentration, 0 d, RT",[2]; in Polymer P1,250 ppm
same,"active-substance concentration, 14 d, 40° C.",[2]; in Polymer P1,217 ppm
same,"active-substance concentration, 28 d, 40° C.",[2]; in Polymer P1,156 ppm
same,"active-substance concentration, 60 d 40° C.",[2]; in Polymer P1,131 ppm
same,"active-substance concentration, 0 d, RT",[2]; in Polymer P2,250 ppm
same,"active-substance concentration, 14 d, 40° C.",[2]; in Polymer P2,181 ppm
same,"active-substance concentration, 28 d, 40° C.",[2]; in Polymer P2,139 ppm
same,"active-substance concentration, 60 d 40° C.",[2]; in Polymer P2,116 ppm
same,"active-substance concentration, 0 d, RT",[2]; in Polymer P3,250 ppm
same,"active-substance concentration, 14 d, 40° C.",[2]; in Polymer P3,171 ppm
same,"active-substance concentration, 28 d, 40° C.",[2]; in Polymer P3,140 ppm
same,"active-substance concentration, 60 d 40° C.",[2]; in Polymer P3,122 ppm
same,"active-substance concentration, 0 d, RT",[2]; in Polymer P4,250 ppm
same,"active-substance concentration, 14 d, 40° C.",[2]; in Polymer P4,164 ppm
same,"active-substance concentration, 28 d, 40° C.",[2]; in Polymer P4,136 ppm
same,"active-substance concentration, 60 d 40° C.",[2]; in Polymer P4,113 ppm
same,"active-substance concentration, 0 d, RT",[2]; in Polymer P5 (HP56),250 ppm
same,"active-substance concentration, 14 d, 40° C.",[2]; in Polymer P5 (HP56),151 ppm
same,"active-substance concentration, 28 d, 40° C.",[2]; in Polymer P5 (HP56),119 ppm
same,"active-substance concentration, 60 d 40° C.",[2]; in Polymer P5 (HP56),94 ppm
same,"active-substance concentration, 0 d, RT",[2]; in Polymer P6,250 ppm
same,"active-substance concentration, 14 d, 40° C.",[2]; in Polymer P6,143 ppm
same,"active-substance concentration, 28 d, 40° C.",[2]; in Polymer P6,117 ppm
same,"active-substance concentration, 60 d 40° C.",[2]; in Polymer P6,87 ppm
same,"active-substance concentration, 0 d, RT",[2]; in Polymer P7,250 ppm
same,"active-substance concentration, 14 d, 40° C.",[2]; in Polymer P7,149 ppm
same,"active-substance concentration, 28 d, 40° C.",[2]; in Polymer P7,123 ppm
same,"active-substance concentration, 60 d 40° C.",[2]; in Polymer P7,91 ppm
same,"active-substance concentration, 0 d, RT",[2]; in Polymer P8,250 ppm
same,"active-substance concentration, 14 d, 40° C.",[2]; in Polymer P8,151 ppm
same,"active-substance concentration, 28 d, 40° C.",[2]; in Polymer P8,119 ppm
same,"active-substance concentration, 60 d 40° C.",[2]; in Polymer P8,94 ppm
same,"active-substance concentration, 0 d, RT",[2]; in Polymer P9,250 ppm
same,"active-substance concentration, 14 d, 40° C.",[2]; in Polymer P9,131 ppm
same,"active-substance concentration, 28 d, 40° C.",[2]; in Polymer P9,98 ppm
same,"active-substance concentration, 60 d 40° C.",[2]; in Polymer P9,80 ppm
same,"Start sample measurement, bact. assess., 4th inoculation",[3]; Polymer P1,"− (slight growth, max. 100 colonies)"
same,"60 d 40° C., bact. assess., 4th inoculation",[3]; Polymer P1,+
same,"Start sample measurement, bact. assess., 4th inoculation",[3]; Polymer P2,"− (slight growth, max. 100 colonies)"
same,"60 d 40° C., bact. assess., 4th inoculation",[3]; Polymer P2,+
same,"Start sample measurement, bact. assess., 4th inoculation",[3]; Polymer P3,"− (slight growth, max. 100 colonies)"
same,"60 d 40° C., bact. assess., 4th inoculation",[3]; Polymer P3,+
same,"60 d 40° C., bact. assess., 4th inoculation",[3]; Polymer P4,+
same,"60 d 40° C., bact. assess., 4th inoculation",[3]; Polymer P5 (HP56),+
same,"60 d 40° C., bact. assess., 4th inoculation",[3]; Polymer P6,+
same,"60 d 40° C., bact. assess., 4th inoculation",[3]; Polymer P7,+
same,"Start sample measurement, bact. assess., 4th inoculation",[3]; Polymer P8,"− (slight growth, max. 100 colonies)"
same,"60 d 40° C., bact. assess., 4th inoculation",[3]; Polymer P8,+
same,"60 d 40° C., bact. assess., 4th inoculation",[3]; Polymer P9,+
same,"Physical stability, 60 d 40° C.*",[4]; Polymer P1 with stabilizer,−
same,"Physical stability, 60 d 40° C.*",[4]; Polymer P2 with stabilizer,−
same,"Physical stability, 60 d 40° C.*",[4]; Polymer P3 with stabilizer,−
same,"Physical stability, 60 d 40° C.*",[4]; Polymer P4 with stabilizer,−
same,"Physical stability, 60 d 40° C.*",[4]; [5],−
same,"Physical stability, 60 d 40° C.*",[4]; Polymer P6 with stabilizer,−
same,"Physical stability, 60 d 40° C.*",[4]; Polymer P7 with stabilizer,−
same,"Physical stability, 60 d 40° C.*",[4]; Polymer P8 with stabilizer,−
same,"Physical stability, 60 d 40° C.*",[4]; Polymer P9 with stabilizer,−
